From patent US9012152B2, “Anti-bacterial peptides and methods of treating diseases using same” (Yissum Research Development Company of the Hebrew …, priority 2007, dated 2015)

Experiments:
[1] = tested on: E. Coli MC41relA^+; assay: EDF activity of modified derivatives (size and external Asn residues); format: cell-based; settings: various concentrations added to diluted cultures; incubated with rifampicin
Experimental: The […] peptides analyzed include NNWNN (SEQ ID NO: 1); GNWNN (SEQ ID NO: 2); NGWNN (SEQ ID NO: 3); NNGNN (SEQ ID NO: 4); NNWGN (SEQ ID NO: 5); and NNWNG (SEQ ID NO: 6). […] Chemically synthesized EDF (SEQ ID NO: 1) or its modified derivatives were added at various concentrations to diluted cultures of E. Coli MC41relA^+. No EDF was added to a control culture. […] Samples were incubated with rifampicin as described in Example 1.
E. coli mazEF-mediated cell death in the presence of synthesized wild type (WT) and mutated EDF. E. coli MC4100relA^+t(WT) and MC4100relA^+ΔmazEF (ΔmazEF) were grown for 12 hours in M9 medium with shaking (160 rpm). Then, cells were diluted 1:100 in M9 medium and were grown with shaking (160 rpm) at 37° C. to a mid-logarithmic phase (OD600=0.6). […] The samples were incubated for 10 minutes at 37° C. without shaking. Then rifampicin (10 μg/ml) was added and the cells were incubated for 10 minutes without shaking. The cells were centrifuged in 14000 rpm for 5 minutes and washed in pre-heated saline. Then, the cells were diluted, plated on LB plates and incubated at 37° C. for 12 hours. Cell killing was calculated by comparing the number of the colony-forming ability of cells treated by stressful conditions to those of the cells that were not exposed to the treatment.

[2] = tested on: E. Coli NC4100relA^+; assay: Ability of mutant EDF molecules to inhibit wild type EDF activity; format: cell-based; settings: constant amount (50 ng/ml) of mutated EDF, various concentrations of WT EDF
Experimental: FIG. 15 is a graph illustrating the ability of mutant EDF molecules to inhibit wild type EDF activity. The […] peptides analyzed include NNWNN (SEQ ID NO: 1); GNWNN (SEQ ID NO: 2); NGWNN (SEQ ID NO: 3); NNGNN (SEQ ID NO: 4); NNWGN (SEQ ID NO: 5); and NNWNG (SEQ ID NO: 6).
Ability of mutant EDF molecules to inhibit wild type EDF activity: Various concentration of chemically synthesized WT EDF (SEQ ID NO: 1) were added to diluted cultures of E. Coli NC4100relA^+ containing a constant amount (50 ng/ml) of each of the mutated EDF described in Table 6. The Experiment was carried out as described herein above.

[3] = tested on: E. coli MC4100relA^+; assay: E. coli mazEF-mediated cell death in the presence of synthesized wild type and mutated EDF; format: cell-based; settings: 1 μg/ml of peptide; rifampicin 10 μg/ml, 10 minutes; diluted culture 3×10^4
Experimental: E. coli mazEF-mediated cell death in the presence of synthesized wild type (WT) and mutated EDF. E. coli MC4100relA^+t(WT) and MC4100relA^+ΔmazEF (ΔmazEF) were grown for 12 hours in M9 medium with shaking (160 rpm). Then, cells were diluted 1:100 in M9 medium and were grown with shaking (160 rpm) at 37° C. to a mid-logarithmic phase (OD600=0.6). Duplicate samples were removed from the cultures at a density of 2.5×10^8 (Dense), diluted in pre-heated M9 medium to the density of 3×10^4 (M9) or diluted in pre-heated M9 applied with 1 μg/ml of one of the synthesized EDFs (SEQ ID NOs: 1-6). The samples were incubated for 10 minutes at 37° C. without shaking. Then rifampicin (10 μg/ml) was added and the cells were incubated for 10 minutes without shaking. The cells were centrifuged in 14000 rpm for 5 minutes and washed in pre-heated saline. Then, the cells were diluted, plated on LB plates and incubated at 37° C. for 12 hours. Cell killing was calculated by comparing the number of the colony-forming ability of cells treated by stressful conditions to those of the cells that were not exposed to the treatment.

[4] = Effect of pH on EDF; format: physicochemical; settings: supernatant incubated at pH 3, 5, 7, 9 or 11 for 2 hours; extreme pH; readout: restoring mazEF-mediated cell death
Experimental: Effect of pH on EDF: Supernatants from the “donor” cultures described above were incubated at pH 3, 5, 7, 9 or 11 for 2 hours and titrated to PH 7. Their ability to restore mazEF-mediated cell death to a diluted culture was determined as described above.

[5] = tested on: E. coli MC4100relA^+wt(WT) and MC4100relA^+ΔmazEF; assay: Killing of E. coli cells by chemically synthesized EDF in combination with other antibiotic; format: cell-based; settings: diluted culture
Experimental: Killing of E. coli cells by chemically synthesized EDF in combination with other antibiotic: E. coli MC4100relA^+wt(WT) and MC4100relA^+ΔmazEF (ΔmazEF) were grown for 12 hours in M9 medium with shaking (160 rpm). Then, cells were diluted 1:100 in M9 medium and were grown with shaking (160 rpm) at 37° C. to a mid-logarithmic phase (OD600=0.6). Duplicate samples were removed from the cultures at a density of 2.5×10^8 (Dense), diluted in pre-heated M9 medium to the density of 3×10^4 (M9) or diluted in pre-heated M9 applied with different concentrations of EDF. The samples were incubated for 10 minutes at 37° C. without shaking Then rifampicin (10 μg/ml) was added and the cells were incubated for 10 minutes without shaking. The cells were centrifuged in 14000 rpm for 5 minutes and washed in pre-heated saline. Then, the cells were diluted, plated on LB plates and incubated at 37° C. for 12 hours. Cell killing was calculated by comparing the number of the colony-forming ability of cells treated by stressful conditions to those of the cells that were not exposed to the treatment.

[6] = molecular target: proteinase K (Parengyodontium album, UniProt P06873); assay: Effect of proteinase K on EDF; settings: supernatant with proteinase K-agarose beads, 37° C., 2 hours
Chain of proteinase K (P06873 106-384): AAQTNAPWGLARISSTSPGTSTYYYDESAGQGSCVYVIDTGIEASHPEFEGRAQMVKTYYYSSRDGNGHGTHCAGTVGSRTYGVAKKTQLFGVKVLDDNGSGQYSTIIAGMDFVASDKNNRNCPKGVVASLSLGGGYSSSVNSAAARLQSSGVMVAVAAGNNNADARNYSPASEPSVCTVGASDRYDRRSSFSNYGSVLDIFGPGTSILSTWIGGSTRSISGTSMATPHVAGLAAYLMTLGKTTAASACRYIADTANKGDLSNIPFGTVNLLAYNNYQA
Experimental: Effect of proteinase K on EDF: Supernatants from the “donor” cultures described above were incubated with shaking at 37° C. for 2 hours as such or with agarose bease or with proteinase K-agarose beads. The beads were then removed by centrifugation at 14,000 rpm for 10 minutes. Their ability to restore mazEF-mediated cell death to a diluted culture was determined as described above.

[7] = tested on: MG1655; assay: EDF response of recipient culture, strain MG1655; format: cell-based, E. coli; settings: rifampicin 10 μg/ml
Experimental: (§1) Comparison of EDF response in MC4100relA^+, K38, W3110, and MG1655 E. coli strains: Cultures of MC4100relA^+, K38, W3110, and MG1655 E. coli were grown as described in Example 1. When the cultures reached a density of 2.5×10^8 cells/ml, duplicate samples were removed and diluted to 3×10^4 cells/ml in pre-heated supernatant of a dense culture of MC4100relA^+(WT) which had been titrated to have an EDF concentration of either 1 unit/ml or 10 units/ml (quantified as described in Example 3). After incubation without shaking at 37° C. for 10 minutes, rifampicin (10 μg/ml) was added, and the culture was incubated without shaking at 37° C. for an additional 10 minutes. Cells were centrifuged in 14,000 rpm for 5 minutes and washed in pre-heated saline. Then, the cells were diluted, plated on LB plates, and incubated at 37° C. for 12 hours. Cell survival was calculated by comparing the colony-forming units (CFUs) of treated cells to those of untreated cells.

[8] = tested on: MC4100relA^+; assay: EDF response of recipient culture, strain MC4100relA^+; format: cell-based, E. coli; settings: rifampicin 10 μg/ml
Experimental: as §1

[9] = Effect of temperature on EDF; format: physicochemical; settings: supernatant incubated 10 minutes; high temperature (80° C. to 100° C.)
Experimental: Effect of temperature on EDF: Supernatants from the “donor” cultures described above were incubated at 37° C., 60° C., 80° C., or 100° C. for 10 minutes and cooled to 37° C. Their ability to restore mazEF-mediated cell death to a diluted culture was determined as described above.

[10] = tested on: K-38; assay: EDF response of recipient culture, strain K-38; format: cell-based, E. coli; settings: rifampicin 10 μg/ml
Experimental: as §1

[11] = tested on: W3110; assay: EDF response of recipient culture, strain W3110; format: cell-based, E. coli; settings: rifampicin 10 μg/ml
Experimental: as §1

[12] = tested on: E. Coli MC4100relA^+ cells, K38 cells and W3110; assay: Chemically synthesized EDF restores mazEF mediated cell death to a dilute culture; format: cell-based; settings: synthetic EDF 2.5 ng/ml
Experimental: Chemically synthesized EDF restores mazEF mediated cell death to a dilute culture: E. Coli MC4100relA^+ cells, K38 cells and W3110 and ΔmazEF cells were grown as described in Example 1 herein above. At a density of 2.5×10^8 cells/ml, samples were either not diluted (dense) or diluted to 3×10^4 cells/ml in pre-warmed M9 medium (Diluted culture) or in a pre-warmed M9 applied with chemically synthesized EDF (2.5 ng/ml; diluted culture+EDF). For FIGS. 12A-C, samples were incubated with rifampicin as in FIG. 2A. For FIG. 13A, samples were incubated in trimethorpin (2 μg/ml) for 1 hour and for FIG. 13B samples were incubated in chlorapmphenicol (50 μg/ml) for 20 minutes.

[13] = tested on: E. coli MC4100relA^+wt (WT) and MC4100relA^+ΔmazEF; assay: Killing of E. coli cells by chemically synthesized EDF itself; format: cell-based; settings: chemically synthesized EDF by itself (without antibiotic), 3 hours
Experimental: Killing of E. coli cells by chemically synthesized EDF itself: E. coli MC4100relA^+wt (WT) and MC4100relA^+ΔmazEF (ΔmazEF) were grown for 12 hours in M9 medium with shaking (160 rpm). Then, cells were diluted 1:100 in M9 medium and were grown with shaking (160 rpm) at 37° C. to a mid-logarithmic phase (OD600=0.6). Samples were removed from the cultures at a density of 2.5×10^8 (Dense), centrifuged in 14000 rpm for 5 minutes and washed in pre-heated M9. The samples were applied with different concentrations of EDF, incubated for 3 hours at 37° C. without shaking. Then, cells were centrifuged in 14000 rpm for 5 minutes and washed in pre-heated saline. Then, the cells were diluted, plated on LB plates and incubated at 37° C. for 12 hours. Cell killing was calculated by comparing the number of the colony-forming ability of cells treated by stressful conditions to those of the cells that were not exposed to the treatment.

[14] = EDF 1 units/ml (titrated supernatant)
[15] = EDF 10 units/ml (titrated supernatant)

Substance: NNNWNNN (Chemically synthesized modified EDF derivative) [heptapeptide derivative of EDF]
- EDF activity [1]: partial activity

Substance: NNWNG: Mutated EDF pentapeptide, glycine in position 5 (Chemically synthesized modified EDF derivative)
- inhibition of wild type EDF activity [2]: capable of antagonizing
- % Cell killing following mazEF induction with rifampicin [3]: 19%

Substance: GNWNN: Mutated EDF pentapeptide, glycine in position 1 (Chemically synthesized mutant EDF derivative)
- inhibition of wild type EDF activity [2]: capable of antagonizing
- % Cell killing following mazEF induction with rifampicin [3]: 9%

Substance: QNWNN: EDF pentapeptide with Asn replaced by Gln at the first position (Chemically synthesized modified EDF derivative)
- EDF activity [1]: only a partial reduction in EDF activity

Substance: NNWNQ: EDF pentapeptide with Asn replaced by Gln at the last position (Chemically synthesized modified EDF derivative)
- EDF activity [1]: only a partial reduction in EDF activity

Substance: NNWGN: Mutated EDF pentapeptide, glycine in position 4 (Chemically synthesized mutant EDF derivative)
- % Cell killing following mazEF induction with rifampicin [3]: 72%

Substance: NGWNN: Mutated EDF pentapeptide, glycine in position 2 (Chemically synthesized mutant EDF derivative)
- % Cell killing following mazEF induction with rifampicin [3]: 51%

Substance: NNGNN: Mutated EDF pentapeptide, glycine in position 3 (Chemically synthesized mutant EDF derivative)
- % Cell killing following mazEF induction with rifampicin [3]: 41%

Substance: Asn-Asn-Trp-Asn-Asn (NNWNN; Chemically synthesized WT EDF) [linear pentapeptide NNWNN, extracellular death factor of E. coli; purified from supernatant and chemically synthesized]
- sensitivity of EDF to pH [4]: sensitive
- concentrations of EDF at which cell death is mazEF-independent ([5]; chemically synthesized EDF in conjunction with an antibiotic (rafamycin)): over 500 ng/ml
- concentrations of EDF at which cell death is mazEF-dependent ([5]; chemically synthesized EDF in conjunction with an antibiotic): 1 to 500 ng/mL
- sensitivity of EDF to proteinase K [6]: sensitive
- % Survival of recipient culture in response to added EDF [7, 14]: 77.8 ± 3.4%
- % Survival of recipient culture in response to added EDF [7, 15]: 19.6 ± 4.5%
- % Survival of recipient culture in response to added EDF ([8]; EDF 1 units/ml (titrated supernatant of dense MC4100relA^+ culture)): 8.0 ± 5.0%
- % Survival of recipient culture in response to added EDF [8, 15]: 7.0 ± 2.0%
- sensitivity of EDF to temperature [9]: sensitive
- % Survival of recipient culture in response to added EDF [10, 14]: 17.0 ± 4.2%
- % Survival of recipient culture in response to added EDF [10, 15]: 12.0 ± 6.6%
- % Survival of recipient culture in response to added EDF [11, 14]: 15.0 ± 3.6%
- % Survival of recipient culture in response to added EDF [11, 15]: 14.0 ± 2.3%
- % Cell killing following mazEF induction with rifampicin [3]: 99.5%
- mazEF-mediated cell death in a diluted culture ([12]; induced by chloramphenicol 50 μg/ml, 20 minutes): enhanced mazEF-mediated cell death
- mazEF-mediated cell death in a diluted culture ([12]; induced by rifampicin in different E. Coli strains (MC4100relA^+, K38, W3110)): enhanced mazEF-mediated cell death
- mazEF-mediated cell death in a diluted culture ([12]; induced by trimethoprim 2 μg/ml, 1 hour): enhanced mazEF-mediated cell death
- concentrations of EDF at which cell death is mazEF-dependent [13]: 1 to 10 µg/mL
- concentrations of EDF at which cell death is mazEF-independent [13]: > 10 µg/mL
